From patent publication US20240008487A1, “FUNGICIDAL COMPOSITIONS” (SYNGENTA CROP PROTECTION AG, priority 2020, published 2024)

Key:
Conditions in all cases: alone
Phakopsora pachyrhizi = Phakopsora pachyrhizi (Soybean Rust) on leaf disks of treated soybean plants; type: in vivo
Protocol: Whole soybean plants are treated with the recited active ingredients 4 weeks after planting. 1 day after spraying leaf disks are cut from the first trifoliate leaf. Five repetitions at each rate are conducted. The leaf disks are inoculated with Phakopsora pachyrhizi (Asian soybean rust) one day after treatment. Evaluation of the leaf disks is conducted 11 to 14 days after inoculation and the activity is derived from the relation of the treated vs untreated, infested check. The rates of the active ingredients used are given in Table as g active ingredient (a.i.)/ha.

Septoria tritici = Septoria tritici (Leaf Blotch) liquid culture growth inhibition; type: cell-based
Protocol: (§1) Conidia of the fungus from cryogenic storage were directly mixed into nutrient broth (PDB potato dextrose broth). A DMSO solution of the test compounds was placed into a microtiter plate (96-well format) and the nutrient broth containing the fungal spores was added to it. The test plates were incubated at 24 C and the inhibition of growth was determined photometrically after 72 hrs.

[1] = system: Glomerella lagenarium syn. Colletotrichum lagenarium; experiment: Glomerella lagenarium syn. Colletotrichum lagenarium (Anthracnose) liquid culture growth inhibition; type: cell-based
Protocol: Conidia of the fungus from cryogenic storage were directly mixed into nutrient broth (PDB potato dextrose broth). A DMSO solution of the test compounds was placed into a microtiter plate (96-well format) and the nutrient broth containing the fungal spores was added to it. The test plates were incubated at 24 C and the inhibition of growth was determined photometrically after 72 hrs at 620 nm.

Botrytis cinerea = Botrytis cinerea (Gray Mould) liquid culture growth inhibition; type: cell-based
Protocol: as §1

Sclerotinia sclerotiorum = Sclerotinia sclerotiorum (White Mold) liquid culture growth inhibition; type: cell-based
Protocol: Mycelial fragments of the fungus prepared from a fresh liquid culture were directly mixed into nutrient broth (PDB potato dextrose broth). A DMSO solution of the test compounds was placed into a microtiter plate (96-well format) and the nutrient broth containing the fungal spores was added to it. The test plates were incubated at 24 C and the inhibition of growth was determined photometrically after 72 hrs at 620 nm

Septoria glycines = Septoria glycines (Brown Spot) liquid culture growth inhibition; type: cell-based
Protocol: Conidia of the fungus from cryogenic storage were directly mixed into nutrient broth (PDB potato dextrose broth). A DMSO solution of the test compounds was placed into a microtiter plate (96-well format) and the nutrient broth containing the fungal spores was added to it. The test plates were incubated at 24 C and the inhibition of growth was determined visually after 72 hrs.

Corynespora cassiicola = Corynespora cassiicola (Target Leaf Spot) liquid culture growth inhibition; type: cell-based
Protocol: Conidia of the fungus from cryogenic storage were directly mixed into nutrient broth (PDB potato dextrose broth). A DMSO solution of the test compounds was placed into a microtiter plate (96-well format) and the nutrient broth containing the fungal spores was added to it. The test plates were incubated at 24 C and the inhibition of growth was determined photometrically after 3-4 days at 620 nm.

Q: Which results are given for `CNC(=O)C(F)(F)c1ccc(-c2noc(C(F)(F)F)n2)cc1` [2,2-Difluoro-N-methyl-2-[4-[5-(trifluoromethyl)-1,2,4-oxadiazol-3-yl]phenyl]acetamide]?
A: Observed Activity (Phakopsora pachyrhizi; 0.3 g/ha): 0%; Observed Activity (Phakopsora pachyrhizi; 0.6 g/ha): 4%; Observed Activity (Septoria tritici; 20 ppm): 20%; Observed Activity ([1]; 0.08 ppm): 20%

Q: Which results are given for `CNC(=S)c1ccc(-c2noc(C(F)(F)F)n2)cc1` [N-methyl-4-[5-(trifluoromethyl)-1,2,4-oxadiazol-3-yl]benzenecarbothioamide]?
A: Observed Activity (Phakopsora pachyrhizi; 0.3 g/ha): 6%; Observed Activity (Phakopsora pachyrhizi; 0.6 g/ha): 74%; Observed Activity (Botrytis cinerea; 2.22 ppm): 0%; Observed Activity (Botrytis cinerea; 6.66 ppm): 20%; Observed Activity (Botrytis cinerea; 20 ppm): 70%; Observed Activity (Septoria tritici; 2.22 ppm): 0%; Observed Activity (Septoria tritici; 6.66 ppm): 70%; Observed Activity (Septoria tritici; 20 ppm): 90%; Observed Activity (Sclerotinia sclerotiorum; 20 ppm): 20%; Observed Activity ([1]; 0.08 ppm): 70%

Q: What does the source list for `CCN(C)C=Nc1cc(C)c(Oc2ccccc2F)cc1Cl` [N′-[2-chloro-4-(2-fluorophenoxy)-5-methyl-phenyl]-N-ethyl-N-methyl-formamidine]?
A: Observed Activity (Phakopsora pachyrhizi; 1.5 g/ha): 46%; Observed Activity (Phakopsora pachyrhizi; 3 g/ha): 80%

Q: What does the source list for `N#Cc1ccc(Oc2ccc(C(F)(F)C(O)(Cn3nc[nH]c3=S)c3ccc(F)cc3F)nc2)cc1` (stereo not shown) [4-[[6-[2-(2,4-Difluorophenyl)-1,1-difluoro-2-hydroxy-3-(5-thioxo-4H-1,2,4-triazol-1-yl)propyl]-3-pyridyl]oxy]benzonitrile]?
A: Observed Activity (Phakopsora pachyrhizi; 30 g/ha): 0%; Observed Activity (Phakopsora pachyrhizi; 60 g/ha): 10%; Observed Activity (Septoria glycines; 1 ppm): 50%; Observed Activity (Septoria glycines; 2 ppm): 70%; Observed Activity (Corynespora cassiicola; 0.5 ppm): 0%; Observed Activity (Corynespora cassiicola; 1 ppm): 0%; Observed Activity (Corynespora cassiicola; 2 ppm): 20%

Q: Which results are given for `CCN(C)C=Nc1cc(C)c(Oc2ccccc2)cc1Cl` [N′-(2-chloro-5-methyl-4-phenoxy-phenyl)-N-ethyl-N-methyl-formamidine]?
A: Observed Activity (Phakopsora pachyrhizi; 1.5 g/ha): 71%; Observed Activity (Phakopsora pachyrhizi; 3 g/ha): 71%; Observed Activity (Septoria tritici; 0.625 ppm): 20%; Observed Activity (Septoria glycines; 0.625 ppm): 70%

Q: Which “Observed Activity” value (Phakopsora pachyrhizi; 0.3 g/ha) does the source give for `O=C(Nc1ccccc1F)c1ccc(-c2noc(C(F)(F)F)n2)cc1` [N-(2-fluorophenyl)-4-[5-(trifluoromethyl)-1,2,4-oxadiazol-3-yl]benzamide] here?
A: The value was 0%.

Q: What about the “Observed Activity” value (Phakopsora pachyrhizi; 0.6 g/ha) of the same molecule?
A: Its value is 35%.

Q: And the “Observed Activity” value (Septoria tritici; 2.22 ppm)?
A: The value was 0%.

Q: And the “Observed Activity” value (Septoria tritici; 6.66 ppm)?
A: The value was 0%.

Q: What about the “Observed Activity” value (Septoria tritici; 20 ppm) of the same molecule?
A: The value was 0%.

Q: And the “Observed Activity” value ([1]; 2.22 ppm)?
A: The value was 0%.

Q: What about the “Observed Activity” value ([1]; 6.66 ppm) of the same molecule?
A: The value was 0%.

Q: What about the “Observed Activity” value ([1]; 20 ppm) of the same molecule?
A: Its value is 0%.

Q: For `CCC(=O)Oc1c(OC)ccnc1C(=O)N[C@@H](C)C(=O)O[C@@H](C)[C@@H](C)c1ccccc1C` [Compound A-1.2, [(1S,2S)-1-methyl-2-(o-tolyl)propyl] (2S)-2-[(4-methoxy-3-propanoyloxy-pyridine-2-carbonyl)amino]propanoate], which “Observed Activity” value (Phakopsora pachyrhizi; 0.3 g/ha) is on record?
A: Its value is 18%.

Q: And the “Observed Activity” value (Phakopsora pachyrhizi; 0.6 g/ha)?
A: Its value is 55%.

Q: And the “Observed Activity” value (Botrytis cinerea; 2 ppm)?
A: Its value is 70%.

Q: What about the “Observed Activity” value (Septoria tritici; 0.02 ppm) of the same molecule?
A: Its value is 20%.

Q: What about the “Observed Activity” value (Septoria tritici; 0.03 ppm) of the same molecule?
A: Its value is 50%.

Q: What about the “Observed Activity” value (Septoria tritici; 0.06 ppm) of the same molecule?
A: Its value is 70%.

Q: And the “Observed Activity” value (Septoria tritici; 0.1 ppm)?
A: The value was 70%.

Q: And the “Observed Activity” value (Sclerotinia sclerotiorum; 0.02 ppm)?
A: Its value is 0%.

Q: What about the “Observed Activity” value (Sclerotinia sclerotiorum; 0.1 ppm) of the same molecule?
A: Its value is 0%.

Q: What about the “Observed Activity” value (Sclerotinia sclerotiorum; 0.2 ppm) of the same molecule?
A: Its value is 0%.

Q: What about the “Observed Activity” value (Sclerotinia sclerotiorum; 2 ppm) of the same molecule?
A: The value was 70%.

Q: And the “Observed Activity” value (Septoria glycines; 0.03 ppm)?
A: The value was 20%.

Q: And the “Observed Activity” value (Septoria glycines; 0.06 ppm)?
A: Its value is 20%.

Q: What about the “Observed Activity” value ([1]; 0.02 ppm) of the same molecule?
A: The value was 0%.

Q: What about the “Observed Activity” value ([1]; 0.1 ppm) of the same molecule?
A: Its value is 0%.

Q: What about the “Observed Activity” value ([1]; 0.2 ppm) of the same molecule?
A: Its value is 0%.

Q: And the “Observed Activity” value (Corynespora cassiicola; 0.06 ppm)?
A: The value was 0%.
